Biological target: T1, glycogen synthase kinase 3β (GSK-3β) (Homo sapiens, UniProt P49841)
T1 construct: gene GSK3B; recombinant His-tagged GSK-3β
Test: BLI on immobilized GSK-3β; also DARTS in lysate and Kinase-Glo inhibition (IC50 […])
Assay type: binding

T1 sequence (P49841 whole entry): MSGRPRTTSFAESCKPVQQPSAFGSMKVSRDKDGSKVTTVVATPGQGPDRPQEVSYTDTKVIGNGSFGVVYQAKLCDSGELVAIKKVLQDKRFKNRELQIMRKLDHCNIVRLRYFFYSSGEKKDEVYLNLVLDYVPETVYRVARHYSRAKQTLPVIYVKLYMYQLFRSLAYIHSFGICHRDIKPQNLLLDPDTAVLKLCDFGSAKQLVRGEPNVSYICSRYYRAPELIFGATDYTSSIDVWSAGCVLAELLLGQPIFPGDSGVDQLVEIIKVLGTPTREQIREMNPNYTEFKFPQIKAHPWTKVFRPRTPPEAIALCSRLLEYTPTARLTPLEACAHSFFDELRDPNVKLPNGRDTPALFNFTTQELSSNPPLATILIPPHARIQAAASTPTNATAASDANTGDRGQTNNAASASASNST

Structure (SMILES): Cc1c(O)c(C)c2c(c1O)C(=O)C[C@@H](c1ccc(O)cc1)O2 [farrerol]
- Kd: 634 µM

— PMC7007950, “Farrerol Directly Targets GSK-3β to Activate Nrf2-ARE Pathway and Protect EA.hy926 Cells against Oxidative Stress-Induced Injuries” (Oxidative Medicine and Cellular Longevity, 2020)
